The target of one assay is T1, PLD (phospholipase D).
T1 construct: fused on or other part: N-terminal polyhistidine tag (pFastBac HTc) on either enzyme
Briefly: In vitro assay of PLD activity ([3H]-choline release from labelled PC). It is filed as biochemical, human. The settings on record: Table 1, monocyclic thiazolidinones of Formula I; PLD isoform not stated; read-out: IC50. How it is done:
Recombinant PLD1 and PLD2—Human PLD1 and PLD2 were isolated from Sf9 insect cells that had been infected with recombinant baculovirus vector, pFastBac™HTc vector (Life Technologies, Gaithersburg, Md.), containing PLD1 or PLD2 cDNAs.
PLD1 activity was assayed by measuring the generation of [^3H]-choline from [choline-methyl^3H](16:0, 16:0)PC.
The assay procedure for PLD2 was similar to that for PLD1, with the exception that arf1, PKC-α, and GTPγS were omitted from the reaction mixture. After addition of enzymes, the reactions were incubated for 1 hour at room temperature. Twenty microliters of 12% trichloroacetic acid (TCA) then were added to each sample, to stop the reaction and to precipitate the unreacted [choline-methyl^3H](16:0, 16:0)PC. Thereafter, the samples were passed through 0.65 μm Millipore 96 well filter plates to removed the excess [choline-methyl^3H](16:0, 16:0)PC. For each sample the filtrate (50 μl), which contained the [^3H]-choline released by PLD cleavage of PC, was analyzed using a TopCount™ Liquid Scintillation Counter, a product of Packard (Meriden, Conn.).
For `O=C(O)CCCN1C(=O)/C(=C/c2ccc(-c3ccc(O)c(O)c3)o2)SC1=S` [Compound 22, 4-{5-[5-(3,4-dihydroxy-phenyl)-furan-2-ylidenemethyl]-4-oxo-2-thioxo-thiazolidin-3-yl}-butyric acid], the IC50 came to 1600 nM.

Turning to `O=C(O)c1ccc(-c2ccc(/C=C3\SC(=S)N(c4cccc(C(F)(F)F)c4)C3=O)o2)cc1` [Compound 8, 4-{5-[4-oxo-2-thioxo-3-(3-trifluoromethyl-phenyl)-thiazolidin-5-ylidenemethyl]-furan-2-yl}-benzoic acid], the IC50 is 1400 nM.

As to `Cc1cccc(N2C(=O)/C(=C/c3ccc(-c4ccc(C(=O)O)cc4)o3)SC2=S)c1` [Compound 10, 4-[5-(4-oxo-2-thioxo-3-m-tolyl-thiazolidin-5-ylidenemethyl)-furan-2-yl]-benzoic acid], the IC50 was found to be 600 nM.

In the case of `COC(=O)c1ccc(-c2ccc(/C=C3\SC(=S)N(Cc4ccccc4)C3=O)o2)cc1` [Compound 30, 4-[5-(3-benzyl-4-oxo-2-thioxo-thiazolidin-5-ylidenemethyl)-furan-2-yl]-benzoic acid methyl ester], the half-maximal inhibitory concentration (IC50) amounted to 16000 nM.

As for `O=C(O)CN1C(=O)/C(=C\c2ccc(-c3cccc(Cl)c3)o2)SC1=S` [Compound 3, {5-[5-(3-chloro-phenyl)-furan-2-ylmethylene]-4-oxo-2-thioxo-thiazolidin-3-yl}-acetic acid], the 50% inhibitory concentration (IC50) is 2000 nM.

Consider `COc1ccc(N2C(=O)/C(=C\c3ccc(-c4ccc(C(=O)O)cc4)o3)SC2=S)cc1` [Compound 12, 4-{5[3-(4-methoxy-phenyl)-4-oxo-2-thioxo-thiazolidin-5-ylidenemethyl]-furan-2-yl}-benzoic acid], for which the 50% inhibitory concentration (IC50) was below 400 nM.

Take `Cc1ccc(N2C(=O)/C(=C/c3ccc(-c4ccc(C(=O)O)cc4)o3)SC2=S)c(C)c1` [Compound 15, 4-{5-[3-(2,4-dimethyl-phenyl)-4-oxo-2-thioxo-thiazolidin-5-ylidenemethyl]-furan-2-yl}-benzoic acid]: the IC50 is below 400 nM.

For the compound `O=C(O)c1ccc(N2C(=O)/C(=C/C=C/c3ccccc3)SC2=S)cc1` [Compound 23, 4-[4-oxo-5-(3-phenyl-allylidene)-2-thioxo-thiazolidin-3-yl]-benzoic acid], the IC50 came out at 9000 nM.

As to `O=C(O)c1cccc(-c2ccc(/C=C3\SC(=S)N(C4CCCCC4)C3=O)o2)c1` [Compound 24, 3-[5-(3-Cyclohexyl-4-oxo-2-thioxo-thiazolidin-5-ylidenemethyl)-furan-2-yl]-benzoic acid], the IC50 was below 400 nM.

For the compound `O=C(O)c1ccc(-c2ccc(/C=C3\SC(=S)N(Cc4ccccc4)C3=O)o2)cc1` [Compound 14, 4-[5-(3-benzyl-4-oxo-2-thioxo-thiazolidin-5-ylidenemethyl)-furan-2-yl]-benzoic acid], the IC50 is below 400 nM.

As to `COC(=O)c1ccc(-c2ccc(/C=C3\SC(=S)N(CCCN4CCOCC4)C3=O)o2)cc1` [Compound 28, 4-{5-[3-(3-morpholin-4-yl-propyl)-4-oxo-2-thioxo-thiazolidin-5-ylidenemethyl]-furan-2-yl}-benzoic acid methyl ester], the IC50 was determined as 1500 nM.

On to `COC(=O)c1ccc(-c2ccc(/C=C3\SC(=S)N(Cc4cc(OC)c(OC)c(OC)c4)C3=O)o2)cc1` [Compound 26, 4-{5-[4-oxo-2-thioxo-3-(3,4,5-trimethoxy-benzyl)-thiazolidin-5-ylidenemethyl]-furan-2-yl}-benzoic acid methyl ester], for which the IC50 came out at 3000 nM.

For `O=C(O)CN1C(=O)/C(=C\c2ccc(-c3ccccc3Cl)o2)SC1=S` [Compound 5, {5-[5-(2-chloro-phenyl)-furan-2-ylmethylene]-4-oxo-2-thioxo-thiazolidin-3-yl}-acetic acid], the IC50 was found to be 1800 nM.

As for `Cc1ccc(N2C(=O)/C(=C/c3ccc(-c4cccc(C(=O)O)c4)o3)SC2=S)c(C)c1` [Compound 19, 3-{5-[3-(2,4-dimethyl-phenyl)-4-oxo-2-thioxo-thiazolidin-5-ylidenemethyl]-furan-2-yl}-benzoic acid], the IC50 is below 400 nM.

Turning to `O=C(O)CCCN1C(=O)/C(=C/c2ccc(-c3ccc(Cl)c(Cl)c3)o2)SC1=S` [Compound 21, 4-{5-[5-(3,4-dichloro-phenyl)-furan-2-ylidenemethyl]-4-oxo-2-thioxo-thiazolidin-3-yl}-butyric acid], the IC50 was 400 nM.

In the case of `O=C(O)c1ccc(-c2ccc(/C=C3\SC(=S)N(Cc4ccccc4C(F)(F)F)C3=O)o2)cc1` [Compound 34, 4-{5-[4-oxo-2-thioxo-3-(2-trifluoromethyl-benzyl)-thiazolidin-5-ylidenemethyl]-furan-2-yl}-benzoic acid], the IC50 was found to be 1500 nM.

Still in this assay, the particulars now being: Table 2, bicyclic thiazolidinones of Formula II; PLD isoform not stated; read-out: IC50.
For `CCOC(=O)C1=C(C)N=c2s/c(=C\c3ccc(-c4ccc(C(=O)O)cc4)o3)c(=O)n2C1c1c(OC)ccc2ccccc12` (centres unmarked) [Compound 57, 2-[5-(4-Carboxy-phenyl)-furan-2-ylmethylene]-5-(2-methoxy-naphthalen-1-yl)-7-methyl-3-oxo-2,3-dihydro-5H-thiazolo[3,2-a]pyrimidine-6-carboxylic acid ethyl ester], the 50% inhibitory concentration (IC50) worked out at 3700 nM.

With `CCOC(=O)C1=C(C)N=c2s/c(=C\c3ccc(-c4cccc(C(=O)O)c4)o3)c(=O)n2C1c1ccccc1Cl` (centres unmarked) [Compound 52, 2-[5-(3-Carboxy-phenyl)-furan-2-ylmethylene]-5-(2-chloro-phenyl)-7-methyl-3-oxo-2,3-dihydro-5H-thiazolo[3,2-a]pyrimidine-6-carboxylic acid ethyl ester], the IC50 is 4000 nM.

Turning to `CCOC(=O)C1=C(C)N=c2s/c(=C\c3ccc(-c4ccccc4C(=O)O)o3)c(=O)n2C1c1ccc(SC)cc1` (centres unmarked) [Compound 58, 2-[5-(2-Carboxy-phenyl)-furan-2-ylmethylene]-7-methyl-5-(4-methylsulfanyl-phenyl)-3-oxo-2,3-dihydro-5H-thiazolo[3,2-a]pyrimidine-6-carboxylic acid ethyl ester], the IC50 stood at 4000 nM.

In the case of `CCOC(=O)C1=C(C)N=c2s/c(=C\c3ccc(-c4ccc(Cl)c(C(=O)O)c4)o3)c(=O)n2C1c1ccc(N(C)C)cc1` (centres unmarked) [Compound 45, 2-[5-(3-Carboxy-4-chloro-phenyl)-furan-2-ylmethylene]-5-(4-dimethylamino-phenyl)-7-methyl-3-oxo-2,3-dihydro-5H-thiazolo[3,2-a]pyrimidine-6-carboxylic acid ethyl ester], the IC50 amounted to 1900 nM.

For `CCOC(=O)C1=C(C)N=c2s/c(=C\c3ccc(-c4ccc(C(=O)O)cc4)o3)c(=O)n2C1c1ccc(C)cc1` (centres unmarked) [Compound 48], the IC50 worked out at 3500 nM.

Turning to `CCOC(=O)C1=C(C)N=c2s/c(=C\c3ccc(-c4cccc(C(=O)O)c4)o3)c(=O)n2C1c1ccc(C)cc1` (centres unmarked) [Compound 49, 2-[5-(3-Carboxy-phenyl)-furan-2-ylmethylene]-7-methyl-3-oxo-5-p-tolyl-2,3-dihydro-5H-thiazolo[3,2-a]pyrimidine-6-carboxylic acid ethyl ester], the IC50 came to 2800 nM.

For `CCOC(=O)C1=C(C)N=c2s/c(=C\c3ccc(-c4cccc(C(=O)O)c4)o3)c(=O)n2C1c1ccccc1` (centres unmarked) [Compound 46, 2-[5-(3-Carboxy-phenyl)-furan-2-ylmethylene]-7-methyl-3-oxo-5-phenyl-2,3-dihydro-5H-thiazolo[3,2-a]pyrimidine-6-carboxylic acid ethyl ester], the IC50 is 4300 nM.

As usually defined, the IC50 is the concentration that inhibits the measured activity by half.

(Values after patent publication US20040002526A1, “Phospholipase D inhibitors and uses thereof” (Cell Therapeutics, Inc., priority 2002, published 2004).)
